Our source for the pKa values is article PMC12919657 (Results in chemistry, 2025).

This series in a line: pKa determination. It is filed as physicochemical. To be noted: methanol / 1 N HCl solution.

For `O=C(CCCN1CCC(O)(c2ccc(Cl)cc2)CC1)c1ccc(F)cc1` [Haloperidol], the pKa (commonly the pH at which an ionisable group is half protonated) was 8.22 ± 0.09.
